Assays:
[1] = test system: MuSK-type myasthenia gravis animal model; assay: Suppressing action on muscle weakness (grip strength) in MuSK type myasthenia gravis animal model (Test Example 2); format: in vivo, mouse; conditions: grip strength test on 5th day, female DBA/2 mice, FIG. 1
Protocol: Test Example 2: Suppressing Action on Muscle Weakness in MuSK Type Myasthenia Gravis Animal Model
(§1) In a MuSK-type myasthenia gravis animal model, in which the production of autoantibodies against endogenous MuSK was induced by immunizing with human recombinant MuSK protein, decreased grip strength was evaluated as a pathological index.
(§2) A grip strength measuring device (GPM-100B; Melquest) was used to measure the grip strength of the extremities.
(§3) Repeated daily oral administration of the test compound in the MuSK-type myasthenia gravis animal model was performed as follows.
Seven point five micrograms of human MuSK recombinant protein (9810-MK; R&D systems) prepared with Freund's Complete Adjuvant (263810; Becton, Dickinson and Company) was intradermally administered to the tail of 8-week-old female DBA/2 mice (Charles River Laboratories Japan). Two weeks later, 7.5 micrograms of human MuSK recombinant protein prepared with Freund's Incomplete Adjuvant (263910; Becton, Dickinson and Company) was intradermally administered to the tail to induce myasthenia gravis mice. A week later, antibody titers against human MuSK in serum and grip strengths by the grip strength test were measured, and the mice were divided into groups of 6 mice each based on the antibody titer value and subjected to administration of the test compound. […]

[2] = test system: acetylcholine receptor clustering in C2Cl2 cells; assay: Induction of acetylcholine receptor clustering in mouse myoblasts C2Cl2 cells (Test Example 1); format: cell-based; conditions: Mus musculus; for Emax: Myoblast, maximum response, area of acetylcholine receptor cluster region vs 10 ng/ml Agrin (100%), 0.1 ng/ml Agrin = 0%, read-out: Max; for EC50: Myotube, C2Cl2 myotubes, with 0.1 ng/ml Agrin, concentration giving 50% of cluster area of 10 ng/ml Agrin (100%), read-out: EC50
Protocol: Test Example 1: Evaluation of the Induction of Acetylcholine Receptor Clustering in Mouse Myoblasts C2Cl2 Cells
Induction of acetylcholine receptor clustering by the test compound was evaluated by using fluorescently-labeled Bungarotoxin to image and quantify the acetylcholine receptor cluster region induced by the differentiation of myoblasts into myotubes, and measure the change in area. The following test method was optimized with reference to various reports including FEBS let., 586, 3111-3116 (2012). When a concentration response curve is obtained by plotting the logarithmic concentration of the test compound on the horizontal axis and the ratio of the area of acetylcholine receptor cluster region on the vertical axis, the inducing action of the test compound can be determined.
A concentration response curve as an index indicating acetylcholine receptor clustering inducing action of the test compound in mouse C2Cl2 cells was prepared. C2Cl2 cells (ATCC Number: CRL-1772) were seeded at about 5000 cells/well on a 384-well plate (354667; Corning) coated with type I collagen and allowed to incubate at 37 degrees Celsius overnight in DMEM+20% FBS+1% penicillin/streptomycin medium. The following day, the medium was removed and replaced with a differentiation medium containing DMEM+2% FBS+1% penicillin/streptomycin, and allowed to incubate at 37 degrees Celsius for 4 days. The test compound was dissolved in DMSO and added to a differentiation medium containing 0.1 ng/ml Agrin (550-AG-100; R&D systems) such that the final concentration was […] (3-fold serial dilution) or 0.00017 to 3.3 μM (3-fold serial dilution). The final concentration of DMSO was 0.3%. After the 4 days of incubation, the differentiation medium was replaced with a differentiation medium containing the test compound and 0.1 ng/ml Agrin or a differentiation medium containing 0.1 ng/ml Agrin or 10 ng/ml Agrin alone, and allowed to incubate at 37 degrees Celsius overnight. The next day, 10 μl of DMEM containing Bungarotoxin-Alexa488 (B13422; Life technologies) was added to the differentiation medium containing test compound and Agrin and Agrin alone so that the final concentration of Bungarotoxin-Alexa488 was 1 μg/ml, and was allowed to incubate at 37 degrees Celsius for 1 hour to label the acetylcholine receptor. After removing all the medium, 4% PFA was added to each well and allowed to incubate at room temperature for 10 minutes, then washed with PBS, and allowed to incubate at room temperature for 30 minutes in PBS containing 5% goat serum and 0.3% Triton X-100. After removing the PBS solution, PBS-Tween20 (28352; Thermo fisher scientific) containing Anti-Myosin Heavy Chain eFluor (registered trademark) 660 (50-6503-82; eBioscience) and DAPI (340-07971; Dojindo) was added to each well and allowed to incubate at room temperature for 1 hour to label the myotubes and nuclei. After washing three times with PBS-Tween20, the fluorescence was imaged using IN Cell Analyzer 6000 (GE Healthcare). […] The response of control group (1) was regarded as 0% and the response of the control group (2) was regarded as 100%. For quantification, the signal of only the acetylcholine receptor present in the myotube was used to eliminate non-specific fluorescence.
EC50 and Max value were used as indicators of activity in order to quantitatively evaluate the inducing action of the test compound on acetylcholine receptor clustering. EC50 value is a test compound concentration which indicates 50% in terms of the area of acetylcholine receptor cluster region compared to that of 10 ng/ml Agrin (regarded as 100%) in the concentration response curve. EC50 was calculated by nonlinear regression analysis from the concentration response curve using the area of the cluster region of the test compound as an index. Max value is the maximum response value. […]

[3] = test system: MuSK-type myasthenia gravis animal model; assay: Suppressing action on muscle weakness (grip strength) in MuSK type myasthenia gravis animal model (Test Example 3); format: in vivo, mouse; conditions: grip strength test on 4th day, female DBA/2 mice, FIG. 2
Protocol: Test Example 3: Suppressing Action on Muscle Weakness in MuSK Type Myasthenia Gravis Animal Model
as §1, §2, §3
Seven point five micrograms of human MuSK recombinant protein (9810-MK; R&D systems) prepared with Freund's Complete Adjuvant (263810; Becton, Dickinson and Company) was intradermally administered to the tail of 8-week-old female DBA/2 mice (Charles River Laboratories Japan). Two weeks later, 7.5 micrograms of human MuSK recombinant protein prepared with Freund's Incomplete Adjuvant (263910; Becton, Dickinson and Company) was intradermally administered to the tail to induce myasthenia gravis mice. A week later, antibody titers against human MuSK in serum and grip strengths by the grip strength test were measured, and the mice were divided into groups of 6 mice each and subjected to administration of the test compound. The test compound was orally administered to the mice in the treatment group (3 and 10 mg/kg, suspended in 0.5% methylcellulose twice daily), and vehicle (0.5% methylcellulose) was used for the mice in the control group in place of the test compound. As a normal group, mice of the same age, same sex, and same strain were used that were not immunized with human recombinant MuSK protein. A grip strength test was performed after the administration in the morning of the 4th day.
The significance test between the normal group and the control group was performed by the Student-t test (*p<0.05). In addition, Dunnett's multiple comparison test was used between the control group and the test compound group (#p<0.05). A p-value less than 5% was regarded as significant in all the tests.

[4] = test system: acetylcholine receptor clustering; conditions: NPL 16; cited from earlier work
[5] = test system: acetylcholine receptor clustering; conditions: reported in NPL 15; cited from earlier work

Row | EC50 [2] [nM] | Structure (SMILES) | Emax [2] [%] | suppressing action on grip strength decrease ([3]; 10 mg/kg oral twice daily) | further results
1 | – | Cc1cc(-c2c(F)cc(S(=O)(=O)N3CC[C@H](F)C3)cc2F)nc2cc(C(=O)[O-])ccc12.[Na+] [Example 2, sodium 2-{2,6-difluoro-4-[(3S)-3-fluoropyrrolidine-1-sulfonyl]phenyl}-4-methylquinoline-7-carboxylate] | – | – | suppressing action on grip strength decrease ([1]; 10 mg/kg oral twice daily): suppressing action on grip strength decrease; suppressing action on grip strength decrease ([1]; 30 mg/kg oral twice daily): suppressing action on grip strength decrease
2 | 3 | Cc1c(F)c(-c2c(F)cc(S(=O)(=O)N3CCC(F)CC3)cc2F)nc2cc(C(=O)O)ccc12 [Example 18, 2-[2,6-difluoro-4-(4-fluoropiperidine-1-sulfonyl)phenyl]-3-fluoro-4-methylquinoline-7-carboxylic acid] | 99.8 | suppressing action on grip strength decrease | suppressing action on grip strength decrease ([3]; 3 mg/kg oral twice daily): suppressing action on grip strength decrease
3 | 16 | Cc1cc(-c2c(F)cc(S(=O)(=O)N3CCC(F)CC3)cc2F)nc2cc(C(=O)O)ccc12 [Example 19, 2-[2,6-difluoro-4-(4-fluoropiperidine-1-sulfonyl)phenyl]-4-methylquinoline-7-carboxylic acid] | 108 | suppressing action on grip strength decrease | –
4 | – | C=C1CC[C@H](O)C/C1=C/C=C1\CCC[C@]2(C)[C@@H]([C@H](C)CCCC(C)C)CC[C@@H]12 | – | – | inducing action on acetylcholine receptor clustering in combination with Agrin [4]: promotes an inducing action on acetylcholine receptor clustering
5 | – | CC(C)(C)NCC(O)c1ccc(O)c(CO)c1 (centres unmarked) [salbutamol] | – | – | inducing action on acetylcholine receptor clustering [5]: has an inducing action on acetylcholine receptor clustering

Source: patent publication US20250084062A1, “SUBSTITUTED QUINOLINE DERIVATIVE” (ASTELLAS PHARMA INC., priority 2021, published 2025)
